The values below come from US7125903B1 (Aventis Pharmaceuticals Inc., priority 1999, dated 2006).

SMILES strings stand for the structures. Structures can show the parent of a compound that is named as a salt. Where two headings read alike, the source gives them in different places.

The target in data set [1] is T1, human D4 receptor (D4.2 sub-type) (Homo sapiens, UniProt P21917, DEL265-296).
T1 construct: expressed in transfected cells
T1 sequence (P21917 with tags, fused parts or gaps DEL265-296): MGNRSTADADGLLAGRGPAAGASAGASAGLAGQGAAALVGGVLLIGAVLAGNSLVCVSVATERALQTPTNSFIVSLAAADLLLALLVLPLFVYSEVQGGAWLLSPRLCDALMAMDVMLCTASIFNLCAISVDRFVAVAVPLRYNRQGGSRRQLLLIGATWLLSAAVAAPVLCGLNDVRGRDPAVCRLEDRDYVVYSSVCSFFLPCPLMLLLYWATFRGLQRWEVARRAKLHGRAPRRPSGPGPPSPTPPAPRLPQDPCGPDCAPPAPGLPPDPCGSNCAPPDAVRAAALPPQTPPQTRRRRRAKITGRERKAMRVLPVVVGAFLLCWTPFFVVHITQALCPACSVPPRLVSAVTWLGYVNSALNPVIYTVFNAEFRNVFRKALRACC
Briefly: D4 receptor binding assay (3H-spiperone displacement). The following applies: for Ki: 3H-spiperone 0.25 nM, membranes of HEK 298 cells with human D4.2, Cheng-Prusoff from IC50, read-out: D4 RBA Ki; for inhibition at 1 µM: 1 μM test compound, inhibition of 3H-spiperone binding, read-out: D4 RBA % Inhib. @ 1 μM. The method, then: D4 receptor-binding affinities of the compounds were evaluated according to their ability to reduce binding of ^3H-spiperone as compared to the reference compound clozapine. The potency of the test compound to reduce ^3H-spiperone binding directly correlated to its binding affinity for the receptor.
[…] (human embryonic kidney) cells stably transfected with human D4 receptor (D4.2 sub-type) were grown in NUNC cell factories for 5 days (75% confluency) without a media change and removed with versene (approximately 19 mg of cells per cell factory tray). The cells were then centrifuged in a Sorval centrifuge for 10 min, 5000 rpm (GS3 rotor) and the pellets quickly frozen in liquid nitrogen and stored at −80° C. until used in binding assay. When used in the assay, cells were thawed on ice for 20 min and then 10 mL of incubation buffer (50 mM Tris, 1 mM EDTA, 4 mM MgCl2, 5 mM KCl, 1.5 mM CaCl2, 120 mM NaCl, pH 7.4) was added. The cells were then vortexed to resuspend pellet and homogenized with a Kinematica, CH-6010 Kriens-LU, homogenizer for 15 seconds at setting 7. Concentration of receptor protein was determined using the Pierce BCA assay.
The incubation was started by the addition of 100 μl (50 μg protein) membrane homogenate to a solution of 300 μl incubation buffer and 100 μl (0.25 nM final conc.) ^3H-spiperone (90 Ci/mmol, Amersham, diluted in borosilicate glass vial) in 96-well polypropylene plates (1 mL per well). The plates were vortexed and incubated at room temperature for 90 minutes. The binding reaction was stopped by filtering using a Packard Harvester. The samples were filtered under vacuum over glass fibre filter plates (Whatman GF/B) presoaked for 2 hours in 0.3% polyethylenimine (PEI) in 50 mM Tris buffer (pH 7.4). The filters were then washed 6 times with 7 mL ice cold 50 mM Tris buffer (pH 7.4). The filter plates were dried overnight and 35 μl of Microscint-O (Packard) was added. The plates were sealed and counted in the Packard Top Count (3 minutes per well).
The incubation was started by the addition of 100 μl (50 μg protein) membrane homogenate to a solution of 200 μl incubation buffer, 100 μl ^3H-spiperone (90 Ci/mmol, Amersham, diluted in borosilicate glass vial to 0.25 nM final conc.) and 100 μl (30 μM final conc.) of fresh dopamine (Research Biochemicals Inc., light protected and dissolved in incubation buffer) in 96-well polypropylene plates (1 mL per well). The plates were vortexed and incubated at room temperature for 90 minutes at which time the binding reaction was stopped by filtering. The filters were washed and counted using the same procedure as in the total binding assay described above to give the nonspecific binding value (NSB).
The incubation was started by the addition, in 96-well polypropylene plates (1 mL per well), of 100 μl (50 μg protein) membrane homogenate to a solution of 200 μl incubation buffer, 100 μl (0.25 nM final conc.) ^3H-spiperone (90 Ci/mmol, Amersham, diluted in borosilicate glass vial) and 100 μl of test compound that was prepared from 1 mM stock dissolved in DMSO and stored at −20° C. in polypropylene cryogenic storage vials until dilution in incubation buffer in 96-well polypropylene plates. The plates were vortexed and incubated at room temperature for 90 minutes at which time the binding reaction was stopped by filtering. The filters were washed and counted using the same procedure as in the total binding assay described above to give the displacement binding value (BD).
The test compounds were initially assayed at 1 and 0.1 μM and then at a range of concentrations chosen such that the middle dose would cause about 50% inhibition of ^3H-spiperone binding. Specific binding in the absence of test compound (B0) was the difference of total binding (BT) minus non-specific binding (NSB) and similarly specific binding (in the presence of test compound) (B) was the difference of displacement binding (BD) minus non-specific binding (NSB). […]

The test system of data set [2] is MK801 Stereotypy. Briefly: MK-801 Stereotypy in Mice. It is filed as in vivo. The following applies: Mus musculus, read-out: Antagonism of MK801 Stereotypy % Inhib. @ 20 mg/kg (route). How it is done:
Mk-801 dose-dependently induces characteristic stereotypy marked by locomotion and falling behavior. This MK-801 induced behavior can be antagonized by novel neuroleptic agents. This assay can also assess time course effects following drug administration.
CD-1 or C57 male mice are individually placed in activity boxes (8 mice/drug) and allowed to acclimate for 60 minutes. The mice are then administered test compounds either i.p., s.c., or p.o., at 15, 30, or 60 minutes prior to MK-801 (0.2 mg/kg) administration. Mice are observed for the presence of locomotion and falling behaviors 15 minutes following MK-801. For the duration of action studies the test compounds are administered i.p., s.c., or p.o., at 30, 60, 120, 180, and 240 minutes prior to MK-801 administration.

Data set [3] has as its target human D4 receptor with seven repeat units (D4.7 variant). The following applies: read-out: EC50 of dopamine; cited from earlier work.
The mark [4] stands for this setting: 20 mg/kg ip, mice, MK-801 0.2 mg/kg.
The mark [5] stands for this setting: 20 mg/kg sc, mice, MK-801 0.2 mg/kg.
[6] abbreviates: 20 mg/kg po, mice, MK-801 0.2 mg/kg.

For orientation: Ki means the equilibrium dissociation constant of an inhibitor or competing ligand from its target. Regarding `O[C@H](CNCc1cccs1)COc1cccc(-c2noc3ccsc23)c1` [Compound 6, (2R)-1-(3-thieno[2,3-d]isoxazol-3-yl-phenoxy)-3-[(thiophen-2-ylmethyl)amino]propan-2-ol L-tartrate], the Ki in data set [1] turned out to be 12.6 nM. The inhibition in vivo at 20 mg/kg in data set [2] (setting [4]) turned out to be 25%.
As usually defined, the melting point is the temperature, or range, at which the solid turns liquid. Take `C[C@@](O)(CNCc1cccs1)COc1cccc(-c2noc3ccsc23)c1.O=C(O)/C=C\C(=O)O` [Compound 5, (2R)-2-methyl-1-(3-thieno[2,3-d]isoxazol-3-yl-phenoxy)-3-[thienophen-2-ylmethyl)-amino-propan-2-ol maleate]: the melting point is 51 to 52 °C. In addition, the inhibition in vivo at 20 mg/kg in data set [2] (setting [4]) is 37.5%.
For `OC(CNC[C@@H](O)COc1cccc(-c2noc3ccsc23)c1)c1ccccc1` (some centres unmarked) [Example 27], in data set [1], the Ki is 131 nM. Further, the inhibition in vivo at 20 mg/kg in data set [2] (setting [5]) came out at 75%.
In general, EC50 refers to the concentration that produces a half-maximal response. As to `NCCc1ccc(O)c(O)c1` [dopamine], in data set [3], the EC50 is 40 nM.
`O[C@@H](COc1cccc(-c2noc3ccsc23)c1)CN1CCN(c2cccc(Cl)c2)CC1` [Example 47, (2R)-1-[4-(3-chlorophenyl)piperazin-1-yl]-3-(3-thieno[2,3-d]isoxazol-3-yl-phenoxy)-propan-2-ol]: the melting point lay in the range of 118 to 120 °C.
Take `C[C@@](O)(CNCc1ccccc1)COc1cccc(-c2noc3ccsc23)c1` [Compound 4, (2R)-(−)-1-benzylamino-2-methyl-3-(3-thieno[2,3-d]isoxazol-3-yl-phenoxy)propan-2-ol maleate]: the Ki in data set [1] worked out at 37.7 nM. The inhibition in vivo at 20 mg/kg in data set [2] (setting [4]) turned out to be 12.5%.
Consider `C[C@](O)(CNCc1ccccc1Cl)COc1cccc(-c2noc3ccsc23)c1` [Example 53], for which the inhibition at 1 µM in data set [1] stood at 96%. Moreover, the inhibition in vivo at 20 mg/kg in data set [2] (setting [6]) was 50%.
Take `COc1ccc(N2CCN(C[C@@H](O)COc3cccc(-c4noc5ccsc45)c3)CC2)cc1` [Example 48, (2R)-1-[4-(4-methoxyphenyl)piperazin-1-yl]-3-(3-thieno[2,3-d]isoxazol-3-yl-phenoxy)-propan-2-ol]: the melting point is 110 to 113 °C.
For `N#Cc1ccccc1N1CCN(C[C@@H](O)COc2cccc(-c3noc4ccsc34)c2)CC1` [Example 50, 2-{4-[(R)-2-hydroxy-3-(3-thieno[2,3-d]isoxazol-3-yl-phenoxy)-propyl]piperazin-1-yl}benzonitrile], the melting point lay in the range of 87 to 89 °C.
Turning to `O[C@@H](COc1cccc(-c2noc3ccsc23)c1)CN1CCN(c2ccccc2F)CC1` [Example 44, (2R)-1-[4-(2-fluorophenyl)piperazin-1-yl]-3-(3-thieno[2,3-d]isoxazol-3-yl-phenoxy)-propan-2-ol], the melting point lay within 96 to 99 °C.
For `C[C@](O)(CNCc1ccccc1)COc1cccc(-c2noc3ccsc23)c1` [Compound 3, (2S)-(+)-1-benzylamino-2-methyl-3-(3-thieno[2,3-d]isoxazol-3-yl-phenoxy)propan-2-ol maleate], in data set [1], the inhibition constant Ki was found to be 3.3 nM. Also, the inhibition in vivo at 20 mg/kg in data set [2] (setting [4]) was found to be 37.5%.
For `C[C@](O)(CNCc1ccc(Cl)c(Cl)c1)COc1cccc(-c2noc3ccsc23)c1` [Example 54], the Ki in data set [1] worked out at 13 nM. Moreover, in data set [2] (setting [6]), the inhibition in vivo at 20 mg/kg worked out at 62.5%.
Turning to `C[C@@](O)(CNCc1ccc(F)cc1)COc1cccc(-c2noc3ccsc23)c1` [Example 15], the Ki in data set [1] was found to be 11 nM. Moreover, the inhibition in vivo at 20 mg/kg in data set [2] (setting [5]) was 50%.
Compound `C[C@@](O)(CNCc1cccs1)COc1cccc(-c2noc3ccsc23)c1.O=C(O)/C=C\C(=O)O` [Example 27] displayed a melting point of 120 to 121 °C.
`O[C@@H](COc1cccc(-c2noc3ccsc23)c1)CN1CCN(c2n[nH]c3cc(F)ccc23)CC1` [Example 11, (2R)-1-[4-(6-fluoro-1H-indazol-3-yl)-piperazin-1-yl]-3-(3-thieno[2,3-d]isoxazol-3-yl-phenoxy)-propan-2-ol] had a melting point of 97 to 99 °C.
`COc1ccc2[nH]nc(N3CCN(C[C@@H](O)COc4cccc(-c5noc6ccsc56)c4)CC3)c2c1` [Example 12, (2R)-1-[4-(5-methoxy-1H-indazol-3-yl)-piperazin-1-yl]-3-(3-thieno[2,3-d]isoxazol-3-yl-phenoxy)-propan-2-ol] returned a melting point of 84 to 86 °C.
As to `O[C@@H](COc1cccc(-c2noc3ccsc23)c1)CN1CCN(c2ccccc2Cl)CC1` [Example 46, (2R)-1-[4-(2-chlorophenyl)piperazin-1-yl]-3-(3-thieno[2,3-d]isoxazol-3-yl-phenoxy)-propan-2-ol], the melting point is 83 to 86 °C.
Take `Cc1ccc(CNC[C@](C)(O)COc2cccc(-c3noc4ccsc34)c2)cc1` [Example 58, hydrochloride]: in data set [1], the inhibition at 1 µM is 100%. Besides, in data set [2] (po), the inhibition in vivo at 20 mg/kg stood at 37.5%.
As to `O[C@H](CNCc1ccsc1)COc1cccc(-c2noc3ccsc23)c1` [Example 9], the Ki in data set [1] was determined as 7.6 nM. For the same compound, the inhibition in vivo at 20 mg/kg in data set [2] (setting [4]) came out at 12%.
